Test results as given in paper PMC11350758, “Development of Xanthoangelol-Derived Compounds with Membrane-Disrupting Effects against Gram-Positive Bacteria” (Antibiotics, 2024).
Converted amounts (≈) assume the structure as drawn. Read-outs that look alike come from different tables or passages of the source.

Assays:
[1] = tested on: Gram-negative bacteria tested; experiment: MIC, summary over the Gram-negative bacteria tested; assay type: cell-based; conditions: read-out: MICs against the Gram-negative bacteria tested
Procedure: (§1) All target derivatives were assessed for their in vitro antibacterial activities using a broth microdilution assay to test their minimum inhibitory concentrations (MICs) against six Gram-positive strains (S. aureus ATCC31007, S. aureus ATCC25923, S. aureus ATCC43300, E. faecalis ATCC29212, B. subtilis ATCC9372, and S. epidermidis ATCC12228) and four Gram-negative strains (A. baumannii ATCC19606, K. pneumonia ATCC10031, E. coli ATCC25922, and P. aeruginosa ATCC27853). These compounds were also evaluated for their hemolytic activities and membrane selectivity by determining their HC50 (the concentration required to lyse 50% of red blood cells) and SI (HC50/MICs) values, respectively, and vancomycin was used as the positive drug.
(§2) MICs of the derivatives were determined by the micro broth dilution method according to the American Clinical and Laboratory Standards Institute (CLSI) standards. Briefly, 2-fold serial dilutions of target compounds were prepared in 96-well plates containing TSB broth. An equal volume of bacterial suspension (10^6 CFU/mL) was then pipetted into each well, and the mixture was incubated at 37 °C for 24 h. […] All biological experiments were repeated three times.

S. aureus ATCC43300 [2] = experiment: DNA leakage study; assay type: cell-based; conditions: 16 μg/mL
Procedure: The destruction of bacterial cell membranes usually causes the leakage of macromolecules, including DNA and proteins. To investigate the effect of the compound 9h on the leakage of cytoplasmic contents, we performed DNA and protein leakage assays against S. aureus ATCC43300. The degree of damage to the bacterial cell membrane could be reflected by the concentrations of DNA and protein. The non-membrane-targeted antibiotic ciprofloxacin, membrane-targeted peptide melittin, and PBS were used as controls. […] A similar result were also observed in the leakage of protein with S. aureus (Figure 8C).
Mid-log S. aureus ATCC43300 was collected and resuspended in PBS (1.0 × 10^8 CFU/mL). […] The concentration of the protein was determined according to the method of the BCA assay kit (Thermo Fisher Scientific, Waltham, MA, USA), and the concentration of DNA in the supernatant was tested by a micro-spectrophotometer. All biological experiments were repeated three times.

S. aureus ATCC43300 [3] = experiment: Cell membrane permeabilization, PI uptake assay; assay type: cell-based; conditions: 16 μg/mL, at 20 min
Procedure: The cell membrane permeabilization of compound 9h against S. aureus ATCC43300 was assessed by PI uptake assay. PI could only pass through the impaired cell membrane and had been widely used to evaluate the cell membrane permeability. When the cell membranes were disrupted, PI entered into the cell membrane, leading to a significant improvement in fluorescence intensity. Therefore, the degree of membrane damage could be reflected by observing the fluorescence intensity in S. aureus. […] Compared with the control group, the fluorescence intensity (at 20 min) increased approximately 5-fold after the addition of 9h (16 μg/mL).
Mid-log S. aureus ATCC43300 was collected and then washed with PBS three times. Bacterial suspension (1.0 × 10^8 CFU/mL, 150 μL) was added to a black 96-well plate; following this, fluorescent dye PI (10 μM, 50 μL) was added to each well of plates, and they were preincubated in the dark for 30 min. After the incubation, the fluorescence intensity was detected every minute for 6 min using a microplate reader (λex/λem = 535 nm/615 nm). […] The fluorescence intensity was determined similarly for another 14 min. All biological experiments were repeated three times.

[4] = tested on: S. aureus ATCC43300 biofilm formation
Procedure: (§3) Bacterial biofilms created by the aggregation of bacteria is considered as one of the main reasons for the development of drug resistance. […] Subsequently, we further assessed the efficiency of 9h to eradicate the preformed biofilm. Matured S. aureus biofilm (grown for 24 h) was treated with compound 9h, and the rate of biofilm disruption was then assessed by the crystal violet staining assay.
Biofilm inhibition assay: S. aureus ATCC43300 was cultured (37 °C, 200 rpm) in MHB broth for 5 h and diluted to 1 × 10^6 CFU/mL. […] The planktonic supernatant cells were discarded and washed with PBS three times. Then, methanol (150 µL) was added to each well for 30 min. After discarding methanol, 0.1% crystal violet solution (150 µL) was added, and biofilms were stained for 15 min. Next, crystal violet solution was removed and washed with PBS three times. Finally, ethanol (150 µL) was pipetted into the wells, and the OD values were measured at 575 nm. The biofilm inhibition (%) = (ODcompound − ODblank)/(ODpositive control − ODblank) × 100%.

[5] = tested on: preformed S. aureus ATCC43300 biofilm; experiment: Biofilm disruption assay (crystal violet); assay type: cell-based; conditions: biofilm grown for 24 h
Procedure: as §3
Biofilm disruption: Briefly, S. aureus ATCC43300 (1 × 10^6 CFU/mL) was incubated in 96-well plates for 24 h to create biofilms. Next, the planktonic supernatant cells were removed. […] Then, the treated biofilm was determined by crystal violet assay. The OD values were measured at 575 nm. Biofilm disruption (%) = (ODcompound − ODblank)/(ODpositive control − ODblank) × 100%. All biological experiments were repeated three times.

[6] = tested on: Gram-positive strains tested; experiment: MIC, summary over the Gram-positive strains tested; assay type: cell-based; conditions: read-out: MICs against the Gram-positive strains tested, range over the Gram-positive panel
Procedure: as §1, §2

S. aureus ATCC43300 [7] = experiment: ROS assay (DCFH-DA); assay type: cell-based; conditions: 16 μg/mL
Procedure: It is known that the disruption of bacterial cell membranes often causes the production of ROS in bacterial cells. The fluorescent probe DCFH-DA was used to monitor the level of intracellular ROS produced by S. aureus ATCC43300. DCFH-DA is initially non-fluorescent; however, it undergoes hydrolysis to DCFH upon entry into the cell. Subsequently, DCFH is converted to the fluorescent compound DCF when ROS are produced in the cells. […] The fluorescence intensity of 9h was about 8-fold higher than the PBS-treated group when the concentration of 9h increased 16 μg/mL.
Mid-log S. aureus ATCC43300 was collected and resuspended in PBS. Bacteria suspension (1.0 × 10^8 CFU/mL) was placed into a 96-well plate, and an equal volume of DCF-DA (10.0 μM) was mixed and incubated at 37 °C for 30 min. After incubation, the suspension was centrifuged (3500 rpm, 4 min), and the supernatant was removed and resuspended in PBS. […] The fluorescence intensity of each well was recorded by a microplate reader (Ex = 488 nm and Em = 530 nm). All biological experiments were repeated three times.

CC(=O)c1c(OCCCNCCCN2CCN(C)CC2)c2c(c3c1OC(C)(CCC=C(C)C)C=C3)OC(C)(CCC=C(C)C)C=C2 (stereo not drawn) [Compound 9h, 1-(2,8-Dimethyl-2,8-bis(4-methylpent-3-en-1-yl)-5-(3-((3-(4-methylpiperazin-1-yl)propyl)amino)propoxy)-2H,8H-pyrano [2,3-f]chromen-6-yl)ethan-1-one]
MIC [1]: 4 to 16 µg/mL (≈ 6.31 to 25.2 µM) | concentration of DNA excreted vs blank control (S. aureus ATCC43300 [2]): approximately 5.5 fold | increase of PI fluorescence intensity vs control group (S. aureus ATCC43300 [3]): approximately 5 fold | inhibition of S. aureus biofilm formation ([4]; 1× MIC (2 μg/mL)): 8.65% | inhibition of S. aureus biofilm formation ([4]; 2× MIC): 10.87% | eradication of preformed S. aureus biofilm ([5]; 8 μg/mL): about 19.83% | eradication of preformed S. aureus biofilm ([5]; 1× MIC (2 μg/mL)): 11.65% | MIC [6]: 0.5 to 8 µg/mL (≈ 0.789 to 12.6 µM) | ROS fluorescence intensity vs PBS-treated group (S. aureus ATCC43300 [7]): about 8 fold
